Laboratory results taken from the PolyMetriX glass transition set.
± gives the standard deviation of the reports.

Compound	glass transition temperature [°C]
*CC(COC(=O)c1ccc(N2C(=O)C3C4C=CC(C4)C3C2=O)cc1)O* (repeat unit)	62.50
*Nc1ccc(*)cc1OCCCCCCCCCCCCCCCC (repeat unit)	92.00
*CC(C)(C)COC(=O)C1CCC(C(=O)O*)CC1 (repeat unit)	30.00
*CC(*)(F)C(=O)OCC(F)(F)F (repeat unit)	124.00
*CC(*)OC(=O)c1ccc(Br)cc1 (repeat unit)	85.50
*c1ccc(OCCN(CCOc2ccc(-c3cc(-c4ccccc4)c4cc(Oc5ccc6nc(*)cc(-c7ccccc7)c6c5)ccc4n3)cc2)c2ccc(C(C#N)=C(C#N)C#N)cc2)cc1 (repeat unit)	175.00
*CCc1ccc(CCNC(=O)CCCCCCCCCCCCC(=O)N*)cc1 (repeat unit)	93.00
*CCCCCCNC(=O)CCP(C)(=O)CCC(=O)N* (repeat unit)	57.50
*CCOP(=O)(/N=N/c1ccc(CCOC(=O)c2cc(C(=O)OCCc3ccc(/N=N/P(=O)(O*)OC)cc3)cc(C(C)(C)C)c2)cc1)OC (repeat unit)	84.00
*CC(*)C(=O)NC (repeat unit)	171.00
*O[Si](*)(C)CCCn1c2ccccc2c2ccccc21 (repeat unit)	55.5
*CC(OC)C(C)(C(=O)OC)C(*)(C)C(=O)OC (repeat unit)	134.00
*OC(C)CCCCC(*)=O (repeat unit)	-40.00
*CC(*)C(=O)OCCCCCCCCC (repeat unit) [Poly(n-nonyl acrylate) ]	-60 ± 17
*O[Si](*)(C)CCCOc1ccc(C(=O)OC2CCC3(C)C(=CCC4C3CCC3(C)C(C(C)CCCC(C)C)CCC43)C2)cc1 (repeat unit)	61.10
*CC(*)OC(=O)CC1CCCC1 (repeat unit)	-3.00
*/C=C/C1CC(*)C(C2CC=CCC2)C1 (repeat unit)	105.00
*CC(*)c1ccc(C#N)cc1 (repeat unit)	180.00
*CC(*)c1ccc(C(C)(O)CC)cc1 (repeat unit)	190.00
*CC(*)C(=O)OCCCCCCCCCCOc1cnc(-c2ccc(OC(=O)C3COC(C)(C)O3)cc2)nc1 (repeat unit)	29.00
*CC(*)OC(=O)c1ccccc1OC(C)=O (repeat unit)	59.50
*=Nc1ccc(Cc2ccc(NC(=*)C)cc2)cc1 (repeat unit)	142.00
*c1ccc(-c2nc3ccccc3o2)c(*)c1 (repeat unit)	229.00
*/C=C/C(C)C(*)C(=O)OC (repeat unit)	53.00
*CC#CC#CCOc1ccc(C(=O)OCCN(CCOC(=O)c2ccc(O*)cc2)c2ccc([N+](=O)[O-])cc2)cc1 (repeat unit)	100.00
*OC(=O)C(C)NC(=O)CCCCCCCCCCC(=O)NC(C)C(=O)OC1COC2C(*)COC12 (repeat unit)	28.00
*C(=O)OCCN(CCOC(=O)c1ccc2c(c1)C(=O)N(c1cccc(N3C(=O)c4ccc(*)cc4C3=O)c1)C2=O)c1ccc(/N=N/c2ccc(F)cc2)cc1 (repeat unit)	168.00
*CC(CCCCCCCCCCCCCCCC)C1C(=O)N(CCCCNC(=O)C(F)(F)C(F)(F)C(F)(F)C(F)(F)C(F)(F)C(F)(F)C(F)(F)F)C(=O)C1* (repeat unit)	63.00

Further lines, results first:

glass transition temperature [°C]	Compound
60.00	*CC(*)(C)C(=O)OCCCCCCCCCCn1c2ccccc2c2cc(/N=N/c3ccc([N+](=O)[O-])cc3[N+](=O)[O-])ccc21 (repeat unit)
222.00	*C(=O)Oc1ccc(C2(c3ccc(OC(=O)c4ccc5c(c4)C(=O)N(c4ccc(-c6ccc(N7C(=O)c8ccc(*)cc8C7=O)cc6C)c(C)c4)C5=O)cc3)C3CC4CC(C3)CC2C4)cc1 (repeat unit)
77.00	*C(=O)OCCCCCCCOC(=O)c1ccc(N2C(=O)c3ccc(*)cc3C2=O)cc1 (repeat unit)
292.00	*c1ccc2c(c1)C(=O)N(c1ccc(Oc3ccc(N4C(=O)c5ccc(C(*)(C(F)(F)F)C(F)(F)F)cc5C4=O)cc3)c(O)c1)C2=O (repeat unit)
420.00	*/C=C(/*)c1ccc(-n2c(=O)c3cc4c(=O)n(-c5ccc(C#C)cc5)c(=O)c4cc3c2=O)cc1 (repeat unit)
54.00	*Oc1ccc(CC(Cc2ccc(*)cc2)(C(=O)OCC)C(=O)OCC)cc1 (repeat unit)
128.00	*Oc1ccc(OC(=O)c2cccc(Sc3ccc(OC(=O)c4ccc(C(=O)Oc5ccc(Sc6cccc(C(*)=O)c6)cc5)cc4)cc3)c2)cc1-c1ccccc1 (repeat unit)
28.50	*O[Si](*)(C)CCCCCCCCCCC(=O)Oc1ccc(C(=O)Oc2ccc(OC(=O)c3ccc(OCC(C)CC)cc3)cc2)cc1 (repeat unit)
217.00	*Oc1ccc(C2(c3ccc(Oc4ccc(C(=O)c5cccc(C(=O)c6ccc(*)cc6)c5)cc4)c(C)c3)c3ccccc3-c3ccccc32)cc1C (repeat unit)
303.00	*c1ccc2c(c1)C(=O)N(c1cc(Br)c(Oc3c(Br)cc(N4C(=O)c5ccc(C(*)(C(F)(F)F)C(F)(F)F)cc5C4=O)cc3Br)c(Br)c1)C2=O (repeat unit)
319.00	*Nc1ccc(-c2ccc(NC(=O)c3cc(C(*)=O)cc(S(=O)(=O)c4ccccc4)c3)cc2)cc1 (repeat unit)
115.00	*Oc1c(-c2ccccc2)cc(Cc2cc(-c3ccccc3)c(OC(=O)CCCCC(*)=O)c(-c3ccccc3)c2)cc1-c1ccccc1 (repeat unit)
283.00	*Cc1ccc2oc(=O)c(C(=O)Nc3ccc(Oc4ccc(C(c5ccc(Oc6ccc(NC(=O)c7cc8cc(*)ccc8oc7=O)cc6)cc5)(C(F)(F)F)C(F)(F)F)cc4)cc3)cc2c1 (repeat unit)
231.00	*c1ccc(Oc2ccc(NC(=O)c3cccc(Oc4ccc5c(c4)C(=O)N(*)C5=O)c3)cc2)cc1 (repeat unit)
76.00	*Oc1ccc(CC(NC(=O)CCc2ccc(OC(=O)COCC(*)=O)cc2)C(=O)OCc2ccccc2)cc1 (repeat unit)
22.50	*O[Si](*)(C)CCCCOc1ccc(-c2ccc(C#N)cc2)cc1 (repeat unit)
275.00	*CC(*)c1ccc(B(Oc2ccc(B3OC(C)(C)C(C)(C)O3)c3cccnc23)c2ccc(C(C)(C)C)cc2)cc1 (repeat unit)

glass transition temperature [°C]	Compound
227.50	*c1ccc(Oc2ccc(C(C)(C)c3ccc(Oc4ccc(N5C(=O)c6ccc(Oc7ccc8c(c7)C(=O)N(*)C8=O)cc6C5=O)cc4)cc3)cc2)cc1 (repeat unit)
132.00	*c1ccc2c(c1)C(=O)N(c1ccc(-c3ccc(N4C(=O)c5ccc(C(*)(C(F)(F)F)C(F)(F)F)cc5C4=O)c(OCCOc4ccc5c(C)cc(=O)oc5c4)c3)cc1OCCOc1ccc3c(C)cc(=O)oc3c1)C2=O (repeat unit)
264.00	*c1ccc(C(C)(C)c2ccc(N3C(=O)c4ccc(Oc5ccc(Oc6ccc7c(c6)C(=O)N(*)C7=O)cc5)cc4C3=O)cc2)cc1 (repeat unit)
295.00	*C(=O)Nc1ccc(NC(=O)c2ccc3[nH]c(-c4cc(-c5nc6cc(*)ccc6[nH]5)cc(N5C(=O)c6ccccc6C5=O)c4)nc3c2)cc1 (repeat unit)
218.00	*c1ccc2c(c1)C(=O)N(c1cccc(NC(=O)C(F)(F)C(F)(F)C(F)(F)C(F)(F)C(F)(F)C(F)(F)C(=O)Nc3cccc(N4C(=O)c5ccc(C(*)(C(F)(F)F)C(F)(F)F)cc5C4=O)c3)c1)C2=O (repeat unit)
179.00	*C(=O)c1ccc(C(=O)N(*)c2ccccc2)cc1 (repeat unit)
213.00	*c1ccc2c(c1)C(CCCCCCCC)(CCCCCCCC)c1cc(-c3ccc4c(c3)C(c3ccc(-c5nnc(-c6ccc(C(C)(C)C)cc6)o5)cc3)(c3ccc(-c5nnc(-c6ccc(C(C)(C)C)cc6)o5)cc3)c3cc(*)ccc3-4)ccc1-2 (repeat unit)
334.00	*c1ccc(Oc2ccc(-c3ccc(-c4ccc(-c5ccc(Oc6ccc(-c7c8c(c(*)c9ccccc79)C(=O)N(c7ccccc7)C8=O)cc6)c(C(F)(F)F)c5)cc4)cc3)cc2C(F)(F)F)cc1 (repeat unit)
98.00	*CCOC(=O)Nc1ccc(Cc2ccc(NC(=O)OCCOc3ccc(O*)cc3)cc2)cc1 (repeat unit)
237.00	*c1cc(OCCCC)cc(N2C(=O)c3ccc(Oc4ccc5c(c4)C(=O)N(*)C5=O)cc3C2=O)c1 (repeat unit)
266.00	*c1cc(C(c2ccc(O)c(N3C(=O)c4ccc(Oc5ccc6c(c5)C(=O)N(*)C6=O)cc4C3=O)c2)(C(F)(F)F)C(F)(F)F)ccc1O (repeat unit)
15.00	*CCCCCCOC(=O)OCCOC(=O)OCCCCCCOc1ccc(C(=O)c2ccc(O*)cc2)cc1 (repeat unit)
280.00	*c1ccc2c(c1)C(=O)N(c1cccc(C(=O)Nc3ccc(Oc4ccc(-c5ccc(Oc6ccc(NC(=O)c7cccc(N8C(=O)c9ccc(C(*)(C(F)(F)F)C(F)(F)F)cc9C8=O)c7)cc6)cc5)cc4)cc3)c1)C2=O (repeat unit)
187.00	*CCCCCC(=O)Nc1ccc(Cc2ccc(NC(=O)CCCCCN3C(=O)c4ccc(C(=O)c5ccc6c(c5)C(=O)N(*)C6=O)cc4C3=O)cc2)cc1 (repeat unit)
227.00	*c1ccc(Oc2ccc(C(c3ccc(Oc4ccc(N5C(=O)c6ccc(Oc7ccc(C8(c9ccc(Oc%10ccc%11c(c%10)C(=O)N(*)C%11=O)cc9)CCC(C(C)(C)C)CC8)cc7)cc6C5=O)cc4)cc3)(C(F)(F)F)C(F)(F)F)cc2)cc1 (repeat unit)
265.00	*c1ccc2c(c1)C(=O)N(c1cccc(C(=O)Nc3ccc(Oc4ccccc4Oc4ccc(NC(=O)c5cccc(N6C(=O)c7ccc(C(*)(C(F)(F)F)C(F)(F)F)cc7C6=O)c5)cc4)cc3)c1)C2=O (repeat unit)
24.00	*O[Si](C)(C)OC(CCl)COc1ccc(C(C)(C)c2ccc(OCC(*)CCl)cc2)cc1 (repeat unit)
